The text below walks through data of publication PMC11528470, “Evidence for the Quercetin Binding Site of Glycogen Phosphorylase as a Target for Liver-Isoform-Selective Inhibitors against Glioblastoma: Investigation of Flavanols Epigallocatechin Gallate and Epigallocatechin” (Journal of Agricultural and Food Chemistry, 2024).

The target of test [1] is T1, human liver glycogen phosphorylase a (hlGPa) (Homo sapiens, UniProt P06737).
T1 construct: gene PYGL
T1 sequence (P06737 2-847): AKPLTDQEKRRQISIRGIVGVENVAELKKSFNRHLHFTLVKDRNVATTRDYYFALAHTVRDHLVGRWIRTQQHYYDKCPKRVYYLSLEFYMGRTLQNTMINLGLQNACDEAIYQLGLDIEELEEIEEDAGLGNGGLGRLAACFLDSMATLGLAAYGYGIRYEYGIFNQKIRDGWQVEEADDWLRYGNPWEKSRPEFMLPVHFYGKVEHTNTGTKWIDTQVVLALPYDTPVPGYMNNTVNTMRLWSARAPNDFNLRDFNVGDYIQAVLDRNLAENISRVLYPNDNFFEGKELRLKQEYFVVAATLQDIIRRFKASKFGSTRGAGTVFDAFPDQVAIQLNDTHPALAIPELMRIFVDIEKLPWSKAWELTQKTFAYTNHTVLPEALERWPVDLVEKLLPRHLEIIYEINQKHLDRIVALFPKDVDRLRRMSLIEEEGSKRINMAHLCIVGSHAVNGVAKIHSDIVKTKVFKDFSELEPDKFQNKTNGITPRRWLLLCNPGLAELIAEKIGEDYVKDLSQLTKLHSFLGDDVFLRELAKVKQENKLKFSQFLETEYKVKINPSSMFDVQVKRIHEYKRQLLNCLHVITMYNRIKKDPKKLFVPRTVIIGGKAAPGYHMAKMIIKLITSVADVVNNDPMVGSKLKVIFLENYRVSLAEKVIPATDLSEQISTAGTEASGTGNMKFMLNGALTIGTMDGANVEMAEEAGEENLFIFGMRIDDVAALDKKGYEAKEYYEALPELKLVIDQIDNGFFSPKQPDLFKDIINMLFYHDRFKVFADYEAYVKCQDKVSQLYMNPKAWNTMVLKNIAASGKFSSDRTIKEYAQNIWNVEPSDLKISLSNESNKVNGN
As to the kind of experiment: enzyme inhibition assay on purified hlGPa. Type of test: biochemical.

Test [2] has as its target T2, Rabbit skeletal muscle glycogen phosphorylase b (rmGPb) (Oryctolagus cuniculus, UniProt P00489).
T2 construct: gene PYGM
T2 sequence (P00489 2-843): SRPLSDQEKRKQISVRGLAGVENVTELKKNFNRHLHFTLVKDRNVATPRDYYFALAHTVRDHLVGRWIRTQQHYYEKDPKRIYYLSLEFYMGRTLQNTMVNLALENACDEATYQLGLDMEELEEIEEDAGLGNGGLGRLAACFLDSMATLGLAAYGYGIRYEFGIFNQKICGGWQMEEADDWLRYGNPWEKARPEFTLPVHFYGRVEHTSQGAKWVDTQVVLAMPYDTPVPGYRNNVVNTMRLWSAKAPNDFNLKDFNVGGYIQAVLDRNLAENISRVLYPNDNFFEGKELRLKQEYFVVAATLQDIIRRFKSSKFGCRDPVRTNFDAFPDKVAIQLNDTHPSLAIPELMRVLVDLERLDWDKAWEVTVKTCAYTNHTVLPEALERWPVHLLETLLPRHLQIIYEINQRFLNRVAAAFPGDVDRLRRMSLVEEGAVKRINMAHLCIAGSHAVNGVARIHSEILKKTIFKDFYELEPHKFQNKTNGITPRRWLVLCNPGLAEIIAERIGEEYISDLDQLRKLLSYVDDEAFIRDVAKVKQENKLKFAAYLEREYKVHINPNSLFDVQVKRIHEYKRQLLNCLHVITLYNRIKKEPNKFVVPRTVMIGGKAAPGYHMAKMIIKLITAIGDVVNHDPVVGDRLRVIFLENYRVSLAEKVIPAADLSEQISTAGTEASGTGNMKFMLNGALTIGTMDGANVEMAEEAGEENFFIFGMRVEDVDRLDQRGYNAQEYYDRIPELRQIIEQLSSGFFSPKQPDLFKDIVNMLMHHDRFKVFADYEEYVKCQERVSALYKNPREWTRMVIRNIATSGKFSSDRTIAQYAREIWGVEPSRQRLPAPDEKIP
Put plainly: X-ray crystal structure ([…] Å) plus enzyme kinetics (noncompetitive Ki). Type of test: biochemical.

Test [3] concerns the target T2, Rabbit skeletal muscle glycogen phosphorylase b (rmGPb). As to the kind of experiment: X-ray crystal structure of ternary rmGPb-EGCG-glucose complex ([…] Å); multiple inhibition kinetics. The format is binding.
Test [4] shares this target.
Test [5] deals with T1, human liver glycogen phosphorylase a (hlGPa). As to the kind of experiment: enzyme kinetics on purified hlGPa, Lineweaver–Burk. Type of test: biochemical.
In test [6] the target is T2, Rabbit skeletal muscle glycogen phosphorylase b (rmGPb). As to the kind of experiment: X-ray crystal structure ([…] Å) plus enzyme kinetics (noncompetitive Ki). Type of test: biochemical. This is another data set of the same source.

Where two headings read alike, the source gives them in different places.

Consider `Oc1cc(O)c2c(c1)O[C@H](c1cc(O)c(O)c(O)c1)[C@H](O)C2` [EGC], for which it took 194 ± 3.5 µM to reach half-maximal inhibition in test [1] (IC50). Besides, in test [2], the Ki (as a rule, a measure of affinity in units of concentration, obtained from inhibition or displacement) is 286 ± 14.1 µM.
`OC[C@H]1OC(O)[C@H](O)[C@@H](O)[C@@H]1O` (stereo partly drawn) [glucose]: the “X-ray crystal structure of ternary rmGPb-EGCG-glucose complex (2.0 Å); multiple” value in test [3] is “EGCG can bind at the QBS simultaneously with glucose at the catalytic site or caffeine at the inhibitor site”.
`Cn1c(=O)c2c(ncn2C)n(C)c1=O` [caffeine]: the “X-ray crystal structure of ternary rmGPb-EGCG-caffeine complex (2.5 Å); multiple” value in test [4] is given as “EGCG can bind at the QBS simultaneously with glucose at the catalytic site or caffeine at the inhibitor site”.
On to `O=C(O[C@@H]1Cc2c(O)cc(O)cc2O[C@@H]1c1cc(O)c(O)c(O)c1)c1cc(O)c(O)c(O)c1` [EGCG], for which the values for the Ki in test [5] and in test [6] were 17.6 ± 0.7 µM and 49.8 ± 1.6 µM, respectively.
